Patent US20110318272A1, “PESTICIDAL MIXTURES GIVING S[…]” (priority 2010, published 2011)
Entries after “also recorded” stand apart in the source; their conditions may differ. Where two headings read alike, the source gives them in different places.

Legend:
[1] = system: Tetranychus urticae; assay: Leaf disc track-sprayer bioassay against red spider mite; assay type: in vivo; details: for Concentration effect ca LD25 3DAA / Concentration effect ca LD50 3DAA: T. urticae; for activity against T. urticae when applied alone: range-finding assay
Protocol: Test arenas consisted of excised leaf discs of the host plant Phaseolus vulgaris infested with the target organism, Tetranychus urticae. A track sprayer was used to spray the test solutions at an application volume of 200 L/ha. Assessment of mortality (survival), any other sub lethal effects and phytotoxicity were carried out at 24 hours and 72 hours post application (3DAA).

[2] = system: Myzus persicae; details: for Concentration effect ca LD25 3DAA: M. persicae; for aphicidal activity against M. persicae when applied alone: range-finding assay; for pesticidal activity against M. persicae, product alone in mixture study: alone at rate taken as ca. LD25 (BUGOIL 10 mL/L, imidacloprid 0.1, indoxacarb 100, spinosad 1 g (a.i.)/ha)
Protocol: Test arenas consisted of excised leaf discs of the host plant infested with the target organism.
Test arenas consisted of excised leaf discs of the host plant Brassica rapa chinensis infested with the target organism, Myzus persicae. A track sprayer was used to spray the test solutions at an application volume of 200 L/ha. Assessment of mortality (survival), any other sub lethal effects and phytotoxicity were carried out at 24 hours and 72 hours post application (3DAA).

[3] = system: Empoasca biggutula; assay: Field study, leafhopper on eggplant; assay type: in vivo
Protocol: (§1) For the field experiments described in Examples 14-16, the numbers of target organisms on host plants were assessed before treatment and after treatment.
(§2) Field studies as described below were carried out to determine the efficacy of BUGOIL®, lambda cyhalothrin, imidacloprid, and abamectin, alone and in mixtures with BUGOIL®, for control of the whitefly Bemisia tabaci, the leafhopper Empoasca biggutula, the aphid Aphis gosspyii, the shoot/fruit borer Leucinodes orbonalis and the cutworm Spodoptera litura on the eggplant cultivar “Casino” (Solanum melongena cv Casino). In the following studies, the dose (N) is the label dose for each product, expressed in concentration (grams active ingredient) per liter of spray mixture (a.i.)/l).
(§3) Imidacloprid is formulated as CLIMAX® (CLIMAX® 200 SL, Bayer CropScience, Inc., Batch No. 81001025, Production Date Feb. 22, 2005, FPA Reg. No. 284-240-0761 where the dose prior to dilution=N=label dose=0.15 g (a.i.)/l.
(§4) Abamectin is formulated as AGRI-MEK® (AGRI-MEK® 1.8 EC, Syngenta Phillipines, Inc., FPA Reg. No. 011-234-0791), where the dose prior to dilution=N=label dose=0.018 g (a.i.)/l.

[4] = system: Spodoptera litura; assay: Field study, cutworm on eggplant; assay type: in vivo; details: 7 DAA
Protocol: as §1, §2
Lambda cyhalothrin is formulated as Karate® (KARATE® with Zeon Technology, Syngenta Phillipines, Inc., Batch No. JAK8,18179, Production Date Nov. 11, 2008, Phillipines Department of Agriculture, Fertilizer and Pesticides Authority (FPA) Reg. No. 011-204-0396), where the dose prior to dilution=N=label dose=0.8 g (a.i.)/l (rated adapted to lepidopterian and leafhopper pests).
as §3, §4

[5] = system: sucking insect pests (whitefly, leafhoppers and aphids); assay: Field study, sucking insect pests on eggplant; assay type: in vivo; details: abamectin as AGRI-MEK 1.8 EC, mixtures at reduced rates, sucking insect and lepidopteran pests
Protocol: as §1, §2

[6] = system: Trialeurodes sp.; assay: Field study, adult whitefly on zucchini; assay type: in vivo; details: FIG. 12, imidacloprid alone at N/2 dilution
Protocol: as §1
Field studies as described below were carried out to determine the efficacy of BUGOIL® alone, lambda cyhalothrin alone, imidacloprid alone, abamectin alone, and mixtures of BUGOIL® with lambda cyhalothrin, imidacloprid, or abamectin, for control of adult whiteflies of different whitefly species, on zucchini and cucumber. In the following studies, the dose (N) is the label dose for each product, expressed in concentration (grams active ingredient) per liter of spray mixture (a.i.)/1).

[7] = system: Bemisia tabaci; assay: Field study, adult whitefly on eggplant; assay type: in vivo; details: over a 14 day test period, product alone
Protocol: as §1, §2, §3

[8] = 72 hours, *not necessarily at the LD25 level, little or no response to the dose range
[9] = alone at recommended application rate (N)
[10] = 72 hours, *not necessarily at the LD50 level, little or no response to the dose range

Molecule | Concentration effect ca LD25 3DAA ([1]; 72 hours after application) | Concentration effect ca LD50 3DAA ([1]; 72 hours after application) | activity against T. urticae when applied alone ([1]; 72 hours) | Concentration effect ca LD25 3DAA ([2]; 72 hours after application) | aphicidal activity against M. persicae when applied alone ([2]; 72 hours) | Concentration effect ca LD25 3DAA [2, 8] | pesticidal activity against M. persicae, product alone in mixture study ([2]; 72 hours) | control of cutworm, S litura [4, 9] | Concentration effect ca LD25 3DAA [1, 8] | Concentration effect ca LD50 3DAA [1, 10] | other results
Abamectin | ~0.025 g a.i./ha | ~0.040 g a.i./ha | active | ~5 g a.i./ha | active | – | – | – | – | – | Observed mean % mortality of T urticae ([1]; 0.25 g abamectin/L alone): 10%; Concentration effect ca LD50 3DAA ([1]; 72 hours after application, listed as Abamectin (Vertan)): ~0.04 g a.i./ha; mortality rate ([2]; applied as VERTAN at LD25 (5 g (a.i.)/ha) or above, 72 hours): ~100%; control of leafhopper E. biggutula ([3]; 3 days after application 1, BUGOIL alone at 5 mL/L): 78%; control of leafhopper E. biggutula ([3]; 3 days after application 2, BUGOIL alone at 5 mL/L): 66%; control of leafhopper E. biggutula ([3]; 3 days after application 3, BUGOIL alone at 5 mL/L): 49%; control of leafhopper E biggutula ([3]; single application, 3 days after application): around 80%; control of cutworm, S litura ([4]; abamectin alone): 70%; control of eggplant pests [5]: good effects
Spinosad | ~10 g a.i./ha | ~50 g a.i./ha | a dose response to spinosad was observed | – | variable aphicidal activity | ~10 g a.i./ha | no measurable pesticidal activity | – | – | – | Observed mean % mortality of T urticae ([1]; 10 g spinosad/L alone): 8%
CC1(C)[C@H](C(=O)O[C@H](C#N)c2cccc(Oc3ccccc3)c2)[C@@H]1/C=C(\Cl)C(F)(F)F (racemic) [lambda-cyhalothrin, Lambda-cyhalothrin] | ~0.05 g a.i./ha | ~0.1 g a.i./ha | active | ~0.01 g a.i./ha | high aphicidal activity | – | – | around 60% | – | – | pesticidal activity against T. urticae in mixture study ([1]; FIG. 4B, BUGOIL at ca. LD25 (5 mL/L), lambda-cyhalothrin at ca. LD25 (0.05 g (a.i.)/ha), mixtures Treatments 3, 4, 5, 7, 8, 72 hours): showed pesticidal activity
COC(=O)N(C(=O)N1CO[C@@]2(C(=O)OC)Cc3cc(Cl)ccc3C2=N1)c1ccc(OC(F)(F)F)cc1 [indoxacarb, methyl (4aS)-7-chloro-2,5-dihydro-2-[[(methoxycarbonyl)[4-(trifluoromethoxy)phenyl]amino]carbonyl] indeno[1,2-e][1,3,4]oxadiazine-4a(3H)-carboxylate] | – | – | minimal activity; also recorded: not shown to be active | – | little aphicidal activity | ~100 g a.i./ha | did not have measurable pesticidal activity | – | ~100 g a.i./ha | ~400 g a.i./ha | –
O=[N+]([O-])NC1=NCCN1Cc1ccc(Cl)nc1 [imidacloprid, (2E)-1-[(6-chloro-3-pyridinyl)methyl]-N-nitro-2-imidazolidinimine] | – | – | minimal activity | ~0.1 g a.i./ha | active | – | – | around 60% | ~100 g a.i./ha | ~400 g a.i./ha | mortality rates ([2]; range finder assay, concentrations of 1 g a.i./ha and above): greater than 90%; control of adult whiteflies [6]: 30-40%; control of leafhoppers ([3]; 1 HAA, imidacloprid alone at half the normal rate (½ N)): 37%; control of adult whitefly, B. tabaci [7]: ≤ 50%
